The values below come from ChEMBL document CHEMBL5303573, “Mapping human microbiome drug metabolism by gut bacteria and their genes” (Nature, 2019).

Data set [1] in a line: The drug is tested on Clostridium symbiosum strain: ATCC14940 for biotransformation. The drug concentrations were measured before and after a 12-h incubation by liquid-chromatography-coupled mass spectrometry (LC–MS). Conditions: 2 µM.
The conditions of data set [2]: anaerostipes sp., 12 h, 2 µM.
Description: The drug is tested on Anaerostipes sp. strain: fecal isolate for biotransformation. The drug concentrations were measured before and after a 12-h incubation by liquid-chromatography-coupled mass spectrometry (LC–MS)
For data set [3] the following is noted: akkermansia muciniphila, 12 h, 2 µM.
Description: The drug is tested on Akkermansia muciniphila strain: ATCC BAA-835 for biotransformation. The drug concentrations were measured before and after a 12-h incubation by liquid-chromatography-coupled mass spectrometry (LC–MS)
A short description of data set [4]: The drug is tested on Bacteroides vulgatus strain: ATCC8482 for biotransformation. The drug concentrations were measured before and after a 12-h incubation by liquid-chromatography-coupled mass spectrometry (LC–MS). The conditions noted are these: phocaeicola vulgatus, 2 µM.
A short description of data set [5]: The drug is tested on Bacteroides pectinophilus strain: ATCC43243 for biotransformation. The drug concentrations were measured before and after a 12-h incubation by liquid-chromatography-coupled mass spectrometry (LC–MS). The conditions noted are these: 2 µM.
The conditions of data set [6]: bacteroides intestinalis, 12 h, 2 µM.
Description: The drug is tested on Bacteroides intestinalis strain: DSM17393 for biotransformation. The drug concentrations were measured before and after a 12-h incubation by liquid-chromatography-coupled mass spectrometry (LC–MS)
A short description of data set [7]: The drug is tested on Clostridium asparagiforme strain: DSM15981 for biotransformation. The drug concentrations were measured before and after a 12-h incubation by liquid-chromatography-coupled mass spectrometry (LC–MS). The data set is classed as ADME. Also on record: dose 2 uM, timepoint 0 vs 12 hours. Conditions: enterocloster asparagiformis, 2 µM.
A short description of data set [8]: The drug is tested on Ruminococcus lactaris strain: ATCC29176 for biotransformation. The drug concentrations were measured before and after a 12-h incubation by liquid-chromatography-coupled mass spectrometry (LC–MS). Conditions: 2 µM.
Data set [9] can be described thus: The drug is tested on Bacteroides uniformis strain: ATCC8492 for biotransformation. The drug concentrations were measured before and after a 12-h incubation by liquid-chromatography-coupled mass spectrometry (LC–MS). The conditions noted are these: 2 µM.
Data set [10] in a line: The drug is tested on Eggerthella lenta strain: ATCC25559 for biotransformation. The drug concentrations were measured before and after a 12-h incubation by liquid-chromatography-coupled mass spectrometry (LC–MS). Conditions: 2 µM.
For data set [11] the following is noted: bacteroides fragilis, 12 h, 2 µM.
Description: The drug is tested on Bacteroides fragilis strain: DS-208 for biotransformation. The drug concentrations were measured before and after a 12-h incubation by liquid-chromatography-coupled mass spectrometry (LC–MS)
The conditions of data set [12]: roseburia intestinalis, 12 h, 2 µM.
Description: The drug is tested on Roseburia intestinalis strain: L1-82 for biotransformation. The drug concentrations were measured before and after a 12-h incubation by liquid-chromatography-coupled mass spectrometry (LC–MS)
The nature of data set [13]: The drug is tested on Alistipes indistinctus strain: DSM22520 for biotransformation. The drug concentrations were measured before and after a 12-h incubation by liquid-chromatography-coupled mass spectrometry (LC–MS). Conditions: 2 µM.
A short description of data set [14]: The drug is tested on Bifidobacterium ruminantium strain: fecal isolate for biotransformation. The drug concentrations were measured before and after a 12-h incubation by liquid-chromatography-coupled mass spectrometry (LC–MS). The conditions noted are these: 2 µM.
For data set [15] the following is noted: bacteroides thetaiotaomicron, 12 h, 2 µM.
Description: The drug is tested on Bacteroides thetaiotaomicron strain: VPI-5482 for biotransformation. The drug concentrations were measured before and after a 12-h incubation by liquid-chromatography-coupled mass spectrometry (LC–MS)
The conditions of data set [16]: bacteroides fragilis, 12 h, 2 µM. This is another data set of the same source.
Description: The drug is tested on Bacteroides fragilis strain: 3397 (T10) for biotransformation. The drug concentrations were measured before and after a 12-h incubation by liquid-chromatography-coupled mass spectrometry (LC–MS)
The conditions of data set [17]: segatella copri, 12 h, 2 µM.
Description: The drug is tested on Prevotella copri strain: DSM18205 for biotransformation. The drug concentrations were measured before and after a 12-h incubation by liquid-chromatography-coupled mass spectrometry (LC–MS)
For data set [18] the following is noted: bacteroides eggerthii, 12 h, 2 µM.
Description: The drug is tested on Bacteroides eggerthii strain: DSM20697 for biotransformation. The drug concentrations were measured before and after a 12-h incubation by liquid-chromatography-coupled mass spectrometry (LC–MS)
For data set [19] the following is noted: bacteroides thetaiotaomicron, 12 h, 2 µM. The source holds these as a separate data set.
Description: The drug is tested on Bacteroides thetaiotaomicron strain: 7330 for biotransformation. The drug concentrations were measured before and after a 12-h incubation by liquid-chromatography-coupled mass spectrometry (LC–MS)
A short description of data set [20]: The drug is tested on Bacteroides dorei strain: DSM17855 for biotransformation. The drug concentrations were measured before and after a 12-h incubation by liquid-chromatography-coupled mass spectrometry (LC–MS). The conditions noted are these: phocaeicola dorei, 2 µM.

In the case of `CC(C)(Oc1ccc(CCNC(=O)c2ccc(Cl)cc2)cc1)C(=O)O` [BEZAFIBRATE], the “Bacterial Biotransformation” value in data set [1], in data set [2], in data set [3], in data set [4], in [5] and in data set [6] was “Compound metabolized” in each case. Also, the “Bacterial Biotransformation” value in data set [7] is recorded as “Compound NOT metabolized”; in data set [8], “Compound NOT metabolized”; in data set [9], “Compound metabolized”; in [10], “Compound metabolized”; in [11], “Compound metabolized”; in [12], “Compound metabolized”. The “Bacterial Biotransformation” value in data set [13] is “Compound NOT metabolized”; in [14] it was “Compound metabolized”; in data set [15], “Compound metabolized”; in data set [16] it was “Compound metabolized”; in data set [17], “Compound metabolized”; in data set [18] it was “Compound metabolized”. The “Bacterial Biotransformation” value in data set [19] and in [20] was “Compound metabolized” in each case.

For the molecule `OC(CCN1CCCCC1)(c1ccccc1)C1CC2C=CC1C2` (stereo not given) [BIPERIDEN], the “Bacterial Biotransformation” value in data set [1] is recorded as “Compound NOT metabolized”; in data set [2], “Compound NOT metabolized”; in data set [3] it was “Compound NOT metabolized”; in [4], “Compound metabolized”; in data set [5], “Compound NOT metabolized”; in [6], “Compound NOT metabolized”. For the same molecule, the “Bacterial Biotransformation” value in data set [7], in [8], in [9], in data set [10], in [11] and in data set [12] was “Compound NOT metabolized” in each case. Besides, the “Bacterial Biotransformation” value in data set [13], in data set [14], in data set [15], in data set [16], in data set [17] and in data set [18] was “Compound NOT metabolized” each time. For the same molecule, the “Bacterial Biotransformation” value in data set [19] and in data set [20] was “Compound NOT metabolized” in each case.

Regarding `CC(=O)Oc1ccc(C(c2ccc(OC(C)=O)cc2)c2ccccn2)cc1` [BISACODYL], the “Bacterial Biotransformation” value in data set [1], in data set [2], in data set [3], in [4], in data set [5] and in data set [6] was “Compound metabolized” throughout. The “Bacterial Biotransformation” value in [7], in [8], in [9], in data set [10], in data set [11] and in data set [12] was “Compound metabolized” each time. Besides, the “Bacterial Biotransformation” value in data set [13], in data set [14], in [15], in [16], in data set [17] and in [18] was “Compound metabolized” each time. Also, the “Bacterial Biotransformation” value in data set [19] and in data set [20] was “Compound metabolized” throughout.

Take `CC(C)C[C@H]1C(=O)N2CCC[C@H]2[C@]2(O)O[C@](NC(=O)[C@@H]3C=C4c5cccc6[nH]c(Br)c(c56)C[C@H]4N(C)C3)(C(C)C)C(=O)N12.CS(=O)(=O)O` [BROMOCRIPTINE MESYLATE]: the “Bacterial Biotransformation” value in data set [1], in data set [2], in data set [3], in data set [4], in [5] and in data set [6] was “Compound metabolized” each time. Besides, the “Bacterial Biotransformation” value in [7], in data set [8], in data set [9], in [10], in data set [11] and in data set [12] was “Compound metabolized” throughout. In addition, the “Bacterial Biotransformation” value in data set [13], in data set [14], in [15], in [16], in data set [17] and in [18] was “Compound metabolized” throughout. Moreover, the “Bacterial Biotransformation” value in [19] and in data set [20] was “Compound metabolized” in each case.

Take `CCN(CC)CCOCCOC(=O)C1(c2ccccc2)CCCC1.O=C(O)CC(O)(CC(=O)O)C(=O)O` [CARBETAPENTANE CITRATE]: the “Bacterial Biotransformation” value in data set [1], in [2], in data set [3], in data set [4], in data set [5] and in data set [6] was “Compound metabolized” each time. Also, the “Bacterial Biotransformation” value is on record as “Compound metabolized” in data set [7]; “Compound NOT metabolized” in data set [8]; “Compound metabolized” in data set [9]; “Compound metabolized” in [10]; “Compound metabolized” in data set [11]; “Compound metabolized” in data set [12]. Also, the “Bacterial Biotransformation” value in data set [13], in data set [14], in data set [15], in [16], in data set [17] and in data set [18] was “Compound metabolized” each time. The “Bacterial Biotransformation” value in [19] and in data set [20] was “Compound metabolized” each time.

In the case of `COc1ccccc1OCCNCC(O)COc1cccc2[nH]c3ccccc3c12` (stereo not given) [CARVEDILOL], the “Bacterial Biotransformation” value in [1] is “Compound NOT metabolized”; in [2] it was “Compound metabolized”; in data set [3], “Compound metabolized”; in data set [4], “Compound metabolized”; in [5] it was “Compound NOT metabolized”; in data set [6], “Compound metabolized”. Moreover, the “Bacterial Biotransformation” value is “Compound metabolized” in data set [7]; “Compound metabolized” in data set [8]; “Compound metabolized” in data set [9]; “Compound NOT metabolized” in data set [10]; “Compound metabolized” in data set [11]; “Compound NOT metabolized” in data set [12]. In addition, the “Bacterial Biotransformation” value was “Compound metabolized” in data set [13]; “Compound metabolized” in [14]; “Compound metabolized” in [15]; “Compound NOT metabolized” in data set [16]; “Compound metabolized” in data set [17]; “Compound NOT metabolized” in data set [18]. Also, the “Bacterial Biotransformation” value in [19] and in data set [20] was “Compound metabolized” in each case.
